How the values were obtained:
Design in all cases: scale not given here
ABUTH Velvetleaf [1] = experiment: Postemergence herbicidal evaluation, ABUTH; type: in vivo, Abutilon theophrasti, Medic.; conditions: postemergence spray, rated about two-three weeks after treatment
Experimental: (§1) In this evaluation, seedling plants are grown in jiffy flats for about two weeks. The test compounds are dispersed in 80/20 acetone/water mixtures containing 1.0% SUN-IT® II, a methylated seed oil, in sufficient quantities to provide the equivalent of about 0.006 kg to 0.400 kg per hectare of active compound when applied to the plants through a spray nozzle operating at 40 psi for a predetermined time. After spraying, the plants are placed on greenhouse benches and are cared for in accordance with conventional greenhouse procedures. Approximately two - three weeks after treatment, the seedling plants are examined and rated according to the rating system set forth below. Where more than one test is involved for a given compound, the data are averaged.

AMBEL Ragweed, Common [2] = experiment: Postemergence herbicidal evaluation, AMBEL; type: in vivo, Ambrosia artemisifolia, L.; conditions: postemergence spray, rated about two-three weeks after treatment
Experimental: as §1

CASOB Sicklepod [3] = experiment: Postemergence herbicidal evaluation, CASOB; type: in vivo, Cassia obtusifolia, L.; conditions: postemergence spray, rated about two-three weeks after treatment
Experimental: as §1

[4] = system: CHEAL Lambsquarters, Common; experiment: Postemergence herbicidal evaluation, CHEAL; type: in vivo, Chenopodium album, L.; conditions: postemergence spray, rated about two-three weeks after treatment
Experimental: as §1

ECHOG Barnyardgrass [5] = experiment: Postemergence herbicidal evaluation, ECHOG; type: in vivo, Echinochloa crus-galli, (L.) Beau; conditions: postemergence spray, rated about two-three weeks after treatment
Experimental: as §1

GALAP Galium [6] = experiment: Postemergence herbicidal evaluation, GALAP; type: in vivo, Galium aparine; conditions: postemergence spray, rated about two-three weeks after treatment
Experimental: as §1

[7] = system: IPOHE Morningglory, Ivyleaf; experiment: Postemergence herbicidal evaluation, IPOHE; type: in vivo, Ipomoea hederacea, (L.) Jacq.; conditions: postemergence spray, rated about two-three weeks after treatment
Experimental: as §1

SETVI Foxtail, Green [8] = experiment: Postemergence herbicidal evaluation, SETVI; type: in vivo, Setaria viridis, (L.) Beau; conditions: postemergence spray, rated about two-three weeks after treatment
Experimental: as §1

GLXMAW Soybean, Williams [9] = experiment: Postemergence herbicidal evaluation, GLXMAW; type: in vivo, Glycine max, (L.) Merr. cv Williams; conditions: postemergence spray, rated about two-three weeks after treatment
Experimental: as §1

[10] = system: TRZAWR Wheat, Winter, cv Riband; experiment: Postemergence herbicidal evaluation, TRZAWR; type: in vivo, Triticum aestivum; conditions: postemergence spray, rated about two-three weeks after treatment
Experimental: as §1

ORYSAT Rice, Tebonnet [11] = experiment: Postemergence herbicidal evaluation, ORYSAT; type: in vivo, Oryza sativa, (L.); conditions: postemergence spray, rated about two-three weeks after treatment
Experimental: as §1

ZEAMX Corn, Field [12] = experiment: Postemergence herbicidal evaluation, ZEAMX; type: in vivo, Zea mays, L. (Sammel-Bezeichnung); conditions: postemergence spray, rated about two-three weeks after treatment
Experimental: as §1

ABUTH Velvetleaf [13] = experiment: Preemergence herbicidal evaluation, ABUTH; type: in vivo, Abutilon theophrasti, Medic.; conditions: preemergence
Excerpt: (§2) The preemergence herbicidal activity of the test compounds of the present invention is exemplified by the following tests in which the seeds of a variety of monocotyledonous and dicotyledonous plants are separately mixed with potting soil and planted on top of approximately one inch of soil in separate pint cups. […] The treated cups are then placed on greenhouse benches, watered and cared for in accordance with conventional greenhouse procedures. From four to five weeks after treatment, the tests are terminated and each cup is examined and rated according to the rating system provided in Example 46.

AMBEL Ragweed, Common [14] = experiment: Preemergence herbicidal evaluation, AMBEL; type: in vivo, Ambrosia artemisifolia, L.; conditions: preemergence
Excerpt: as §2

CASOB Sicklepod [15] = experiment: Preemergence herbicidal evaluation, CASOB; type: in vivo, Cassia obtusifolia, L.; conditions: preemergence
Excerpt: as §2

[16] = system: CHEAL Lambsquarters, Common; experiment: Preemergence herbicidal evaluation, CHEAL; type: in vivo, Chenopodium album, L.; conditions: preemergence
Excerpt: as §2

ECHOG Barnyardgrass [17] = experiment: Preemergence herbicidal evaluation, ECHOG; type: in vivo, Echinochloa crus-galli, (L.) Beau; conditions: preemergence
Excerpt: as §2

GALAP Galium [18] = experiment: Preemergence herbicidal evaluation, GALAP; type: in vivo, Galium aparine; conditions: preemergence
Excerpt: as §2

[19] = system: IPOHE Morningglory, Ivyleaf; experiment: Preemergence herbicidal evaluation, IPOHE; type: in vivo, Ipomoea hederacea, (L.) Jacq.; conditions: preemergence
Excerpt: as §2

SETVI Foxtail, Green [20] = experiment: Preemergence herbicidal evaluation, SETVI; type: in vivo, Setaria viridis, (L.) Beau; conditions: preemergence
Excerpt: as §2

GLXMAW Soybean, Williams [21] = experiment: Preemergence herbicidal evaluation, GLXMAW; type: in vivo, Glycine max, (L.) Merr. cv Williams; conditions: preemergence
Excerpt: as §2

[22] = system: TRZAWR Wheat, Winter, cv Riband; experiment: Preemergence herbicidal evaluation, TRZAWR; type: in vivo, Triticum aestivum; conditions: preemergence
Excerpt: as §2

ORYSAT Rice, Tebonnet [23] = experiment: Preemergence herbicidal evaluation, ORYSAT; type: in vivo, Oryza sativa, (L.); conditions: preemergence
Excerpt: as §2

ZEAMX Corn, Field [24] = experiment: Preemergence herbicidal evaluation, ZEAMX; type: in vivo, Zea mays, L. (Sammel-Bezeichnung); conditions: preemergence
Excerpt: as §2

Cc1ccccc1-n1nnc2cc(F)c(-n3c(=O)cc(C(F)(F)F)n(C)c3=O)cc21 [Example 20]
Postemergence herbicidal rating ABUTH (ABUTH Velvetleaf [1]; 0.008 kg/ha): 9.0
Postemergence herbicidal rating ABUTH (ABUTH Velvetleaf [1]; 0.016 kg/ha): 9.0
Postemergence herbicidal rating ABUTH (ABUTH Velvetleaf [1]; 0.032 kg/ha): 9.0
Postemergence herbicidal rating ABUTH (ABUTH Velvetleaf [1]; 0.062 kg/ha): 9.0
Postemergence herbicidal rating AMBEL (AMBEL Ragweed, Common [2]; 0.008 kg/ha): 0.0
Postemergence herbicidal rating AMBEL (AMBEL Ragweed, Common [2]; 0.016 kg/ha): 1.0
Postemergence herbicidal rating AMBEL (AMBEL Ragweed, Common [2]; 0.032 kg/ha): 1.0
Postemergence herbicidal rating AMBEL (AMBEL Ragweed, Common [2]; 0.062 kg/ha): 3.0
Postemergence herbicidal rating CASOB (CASOB Sicklepod [3]; 0.008 kg/ha): 0.0
Postemergence herbicidal rating CASOB (CASOB Sicklepod [3]; 0.016 kg/ha): 0.0
Postemergence herbicidal rating CASOB (CASOB Sicklepod [3]; 0.032 kg/ha): 0.0
Postemergence herbicidal rating CASOB (CASOB Sicklepod [3]; 0.062 kg/ha): 1.0
Postemergence herbicidal rating CHEAL ([4]; 0.008 kg/ha): 0.0
Postemergence herbicidal rating CHEAL ([4]; 0.016 kg/ha): 0.0
Postemergence herbicidal rating CHEAL ([4]; 0.032 kg/ha): 3.0
Postemergence herbicidal rating CHEAL ([4]; 0.062 kg/ha): 5.0
Postemergence herbicidal rating ECHCG (ECHOG Barnyardgrass [5]; 0.008 kg/ha): 0.0
Postemergence herbicidal rating ECHCG (ECHOG Barnyardgrass [5]; 0.016 kg/ha): 0.0
Postemergence herbicidal rating ECHCG (ECHOG Barnyardgrass [5]; 0.032 kg/ha): 0.0
Postemergence herbicidal rating ECHCG (ECHOG Barnyardgrass [5]; 0.062 kg/ha): 0.0
Postemergence herbicidal rating GALAP (GALAP Galium [6]; 0.008 kg/ha): 0.0
Postemergence herbicidal rating GALAP (GALAP Galium [6]; 0.016 kg/ha): 0.0
Postemergence herbicidal rating GALAP (GALAP Galium [6]; 0.032 kg/ha): 2.0
Postemergence herbicidal rating GALAP (GALAP Galium [6]; 0.062 kg/ha): 9.0
Postemergence herbicidal rating IPOHE ([7]; 0.008 kg/ha): 1.0
Postemergence herbicidal rating IPOHE ([7]; 0.016 kg/ha): 4.0
Postemergence herbicidal rating IPOHE ([7]; 0.032 kg/ha): 4.0
Postemergence herbicidal rating IPOHE ([7]; 0.062 kg/ha): 9.0
Postemergence herbicidal rating SETVI (SETVI Foxtail, Green [8]; 0.008 kg/ha): 0.0
Postemergence herbicidal rating SETVI (SETVI Foxtail, Green [8]; 0.016 kg/ha): 0.0
Postemergence herbicidal rating SETVI (SETVI Foxtail, Green [8]; 0.032 kg/ha): 0.0
Postemergence herbicidal rating SETVI (SETVI Foxtail, Green [8]; 0.062 kg/ha): 0.0
Postemergence herbicidal rating GLXMAW (GLXMAW Soybean, Williams [9]; 0.008 kg/ha): 3.0
Postemergence herbicidal rating GLXMAW (GLXMAW Soybean, Williams [9]; 0.016 kg/ha): 5.5
Postemergence herbicidal rating GLXMAW (GLXMAW Soybean, Williams [9]; 0.032 kg/ha): 5.5
Postemergence herbicidal rating GLXMAW (GLXMAW Soybean, Williams [9]; 0.062 kg/ha): 5.5
Postemergence herbicidal rating TRZAWR ([10]; 0.008 kg/ha): 1.5
Postemergence herbicidal rating TRZAWR ([10]; 0.016 kg/ha): 1.5
Postemergence herbicidal rating TRZAWR ([10]; 0.032 kg/ha): 1.5
Postemergence herbicidal rating TRZAWR ([10]; 0.062 kg/ha): 2.5
Postemergence herbicidal rating ORYSAT (ORYSAT Rice, Tebonnet [11]; 0.008 kg/ha): 0.0
Postemergence herbicidal rating ORYSAT (ORYSAT Rice, Tebonnet [11]; 0.016 kg/ha): 0.5
Postemergence herbicidal rating ORYSAT (ORYSAT Rice, Tebonnet [11]; 0.032 kg/ha): 0.5
Postemergence herbicidal rating ORYSAT (ORYSAT Rice, Tebonnet [11]; 0.062 kg/ha): 1.0
Postemergence herbicidal rating ZEAMX (ZEAMX Corn, Field [12]; 0.008 kg/ha): 3.0
Postemergence herbicidal rating ZEAMX (ZEAMX Corn, Field [12]; 0.016 kg/ha): 3.5
Postemergence herbicidal rating ZEAMX (ZEAMX Corn, Field [12]; 0.032 kg/ha): 3.5
Postemergence herbicidal rating ZEAMX (ZEAMX Corn, Field [12]; 0.062 kg/ha): 5.0
ABUTH herbicidal rating (ABUTH Velvetleaf [13]; rate 0.016 kg/ha): 0.0
ABUTH herbicidal rating (ABUTH Velvetleaf [13]; rate 0.032 kg/ha): 6.5
ABUTH herbicidal rating (ABUTH Velvetleaf [13]; rate 0.062 kg/ha): 9.0
ABUTH herbicidal rating (ABUTH Velvetleaf [13]; rate 0.125 kg/ha): 9.0
AMBEL herbicidal rating (AMBEL Ragweed, Common [14]; rate 0.016 kg/ha): 0.0
AMBEL herbicidal rating (AMBEL Ragweed, Common [14]; rate 0.032 kg/ha): 1.5
AMBEL herbicidal rating (AMBEL Ragweed, Common [14]; rate 0.062 kg/ha): 2.5
AMBEL herbicidal rating (AMBEL Ragweed, Common [14]; rate 0.125 kg/ha): 5.5
CASOB herbicidal rating (CASOB Sicklepod [15]; rate 0.016 kg/ha): 0.0
CASOB herbicidal rating (CASOB Sicklepod [15]; rate 0.032 kg/ha): 0.0
CASOB herbicidal rating (CASOB Sicklepod [15]; rate 0.062 kg/ha): 0.0
CASOB herbicidal rating (CASOB Sicklepod [15]; rate 0.125 kg/ha): 2.0
CHEAL herbicidal rating ([16]; rate 0.016 kg/ha): 9.0
CHEAL herbicidal rating ([16]; rate 0.032 kg/ha): 9.0
CHEAL herbicidal rating ([16]; rate 0.062 kg/ha): 9.0
CHEAL herbicidal rating ([16]; rate 0.125 kg/ha): 9.0
ECHCG herbicidal rating (ECHOG Barnyardgrass [17]; rate 0.016 kg/ha): 0.0
ECHCG herbicidal rating (ECHOG Barnyardgrass [17]; rate 0.032 kg/ha): 0.0
ECHCG herbicidal rating (ECHOG Barnyardgrass [17]; rate 0.062 kg/ha): 3.5
ECHCG herbicidal rating (ECHOG Barnyardgrass [17]; rate 0.125 kg/ha): 8.0
GALAP herbicidal rating (GALAP Galium [18]; rate 0.016 kg/ha): 0.0
GALAP herbicidal rating (GALAP Galium [18]; rate 0.032 kg/ha): 0.0
GALAP herbicidal rating (GALAP Galium [18]; rate 0.062 kg/ha): 0.0
GALAP herbicidal rating (GALAP Galium [18]; rate 0.125 kg/ha): 0.0
IPOHE herbicidal rating ([19]; rate 0.016 kg/ha): 0.0
IPOHE herbicidal rating ([19]; rate 0.032 kg/ha): 3.0
IPOHE herbicidal rating ([19]; rate 0.062 kg/ha): 4.5
IPOHE herbicidal rating ([19]; rate 0.125 kg/ha): 4.5
SETVI herbicidal rating (SETVI Foxtail, Green [20]; rate 0.016 kg/ha): 0.0
SETVI herbicidal rating (SETVI Foxtail, Green [20]; rate 0.032 kg/ha): 8.0
SETVI herbicidal rating (SETVI Foxtail, Green [20]; rate 0.062 kg/ha): 9.0
SETVI herbicidal rating (SETVI Foxtail, Green [20]; rate 0.125 kg/ha): 9.0
GLXMAW herbicidal rating (GLXMAW Soybean, Williams [21]; rate 0.016 kg/ha): 0.0
GLXMAW herbicidal rating (GLXMAW Soybean, Williams [21]; rate 0.032 kg/ha): 0.5
GLXMAW herbicidal rating (GLXMAW Soybean, Williams [21]; rate 0.062 kg/ha): 1.5
GLXMAW herbicidal rating (GLXMAW Soybean, Williams [21]; rate 0.125 kg/ha): 3.0
TRZAWR herbicidal rating ([22]; rate 0.016 kg/ha): 0.0
TRZAWR herbicidal rating ([22]; rate 0.032 kg/ha): 0.0
TRZAWR herbicidal rating ([22]; rate 0.062 kg/ha): 4.0
TRZAWR herbicidal rating ([22]; rate 0.125 kg/ha): 6.0
ORYSAT herbicidal rating (ORYSAT Rice, Tebonnet [23]; rate 0.016 kg/ha): 0.0
ORYSAT herbicidal rating (ORYSAT Rice, Tebonnet [23]; rate 0.032 kg/ha): 0.0
ORYSAT herbicidal rating (ORYSAT Rice, Tebonnet [23]; rate 0.062 kg/ha): 1.0
ORYSAT herbicidal rating (ORYSAT Rice, Tebonnet [23]; rate 0.125 kg/ha): 3.0
ZEAMX herbicidal rating (ZEAMX Corn, Field [24]; rate 0.016 kg/ha): 0.0
ZEAMX herbicidal rating (ZEAMX Corn, Field [24]; rate 0.032 kg/ha): 1.0
ZEAMX herbicidal rating (ZEAMX Corn, Field [24]; rate 0.062 kg/ha): 4.5
ZEAMX herbicidal rating (ZEAMX Corn, Field [24]; rate 0.125 kg/ha): 6.0
